According to PMC9692855, “Amaryllidaceae Alkaloids from Clivia miniata (Lindl.) Bosse (Amaryllidaceae): Isolation, Structural Elucidation, and Biological Activity” (Plants, 2022):
Like-named read-outs stand apart in the source and are kept apart here.

Columns and labels:
[1] = biological target: human recombinant AChE (E.C. 3.1.1.7) (Homo sapiens, UniProt P22303); assay: biochemical; conditions: for inhibition at 100 µM: read-out: % Inhibition hAChE ± SEM
[2] = biological target: human plasma BuChE (E.C. 3.1.1.8) (Homo sapiens, UniProt P06276); assay: biochemical; conditions: for inhibition at 100 µM: read-out: % Inhibition hBuChE ± SEM
[3] = mean ± SEM of three independent measurements, each in triplicate, read-out: IC50 hAChE ± SEM
[4] = tested at 100 µM compound concentration
[5] = mean ± SEM of three independent measurements, each in triplicate, read-out: IC50 hBuChE ± SEM

Chain of human plasma BuChE (E.C. 3.1.1.8) (P06276 29-602): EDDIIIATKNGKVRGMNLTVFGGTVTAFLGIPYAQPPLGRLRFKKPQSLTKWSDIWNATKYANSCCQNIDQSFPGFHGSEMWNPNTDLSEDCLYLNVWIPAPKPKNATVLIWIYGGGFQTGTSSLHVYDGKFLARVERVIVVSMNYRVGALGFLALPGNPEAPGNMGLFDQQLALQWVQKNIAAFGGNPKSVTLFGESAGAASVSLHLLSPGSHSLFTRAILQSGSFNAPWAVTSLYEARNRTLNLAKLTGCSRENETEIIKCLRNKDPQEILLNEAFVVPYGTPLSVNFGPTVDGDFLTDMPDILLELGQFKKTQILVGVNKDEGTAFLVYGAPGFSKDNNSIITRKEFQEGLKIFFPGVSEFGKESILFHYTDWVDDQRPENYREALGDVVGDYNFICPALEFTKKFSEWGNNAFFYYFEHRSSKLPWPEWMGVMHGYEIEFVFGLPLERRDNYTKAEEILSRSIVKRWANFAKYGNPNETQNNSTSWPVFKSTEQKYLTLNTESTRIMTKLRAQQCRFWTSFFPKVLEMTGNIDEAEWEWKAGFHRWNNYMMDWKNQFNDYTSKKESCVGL
Chain of human recombinant AChE (E.C. 3.1.1.7) (P22303 32-614): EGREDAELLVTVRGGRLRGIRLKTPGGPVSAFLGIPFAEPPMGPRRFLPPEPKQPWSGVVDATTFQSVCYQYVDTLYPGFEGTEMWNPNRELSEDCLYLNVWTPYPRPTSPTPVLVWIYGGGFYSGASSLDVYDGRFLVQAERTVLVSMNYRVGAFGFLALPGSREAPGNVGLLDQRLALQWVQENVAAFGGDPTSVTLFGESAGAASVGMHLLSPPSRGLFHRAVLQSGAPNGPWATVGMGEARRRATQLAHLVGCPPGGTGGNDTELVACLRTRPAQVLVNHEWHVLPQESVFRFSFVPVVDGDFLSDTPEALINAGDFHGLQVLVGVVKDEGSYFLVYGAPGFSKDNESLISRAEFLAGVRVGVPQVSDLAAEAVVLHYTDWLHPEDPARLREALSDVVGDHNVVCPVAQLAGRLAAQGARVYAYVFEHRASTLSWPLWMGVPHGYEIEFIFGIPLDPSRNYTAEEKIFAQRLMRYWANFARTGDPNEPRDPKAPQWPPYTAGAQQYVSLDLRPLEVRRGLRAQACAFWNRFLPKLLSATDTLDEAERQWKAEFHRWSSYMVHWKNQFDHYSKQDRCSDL

Row | SMILES | IC50 [1] [µM] | inhibition at 100 µM [1] [%] | IC50 [2] [µM] | inhibition at 100 µM [2] [%] | IC50 [1, 3] [µM] | inhibition at 100 µM [1, 4] [%] | IC50 [2, 5] [µM] | inhibition at 100 µM [2, 4] [%] | IC50 ([1]; read-out: IC50 hAChE ± SEM) [µM]
1 | COc1cc2c(cc1O)CN1CCC23C=CC(OC(C)=O)CC13 (centres unmarked) [3-O-acetyl-8-O-demethylmaritidine (12), 3-O-acetyl-8-O-demethylmaritidine] | > 100 | 12.3 ± 1.29 | > 100 | 10.3 ± 2.06 |  |  |  |  | 
2 | COC(=O)c1cc(C(=O)O[C@H]2C[C@H]3CCN(C)[C@H]3[C@@H]3c4cc5c(cc4C(=O)O[C@H]32)OCO5)c(C)nc1C [cliniatine C (4), cliniatine C] |  |  |  |  | > 100 | 5.72 ± 0.53 | > 100 | 9.43 ± 1.23 | 
3 | Cc1nc(C)c(C(=O)O[C@H]2C[C@H]3CCN(C)[C@H]3[C@@H]3c4cc5c(cc4C(=O)O[C@H]32)OCO5)cc1C(=O)O[C@H]1C[C@H]2CCN(C)[C@H]2[C@@H]2c3cc4c(cc3C(=O)O[C@H]21)OCO4 [clivimine (2), clivimine] |  |  |  |  | > 100 | 9.62 ± 1.75 | > 100 | 15.2 ± 8.23 | 
4 | Cc1nc(C)c(C(=O)OC2CC3CCN(C)C3C3c4cc5c(cc4C(=O)OC23)OCO5)cc1C(=O)OC1CC2CCN(C)C2c2c1oc(=O)c1cc3c(cc21)OCO3 (centres unmarked) [clivimine B (3), clivimine B] |  |  |  |  | > 100 | 10.1 ± 5.37 | > 100 | 7.69 ± 2.56 | 
5 | CN1CC[C@@H]2C[C@H](O)[C@@H]3OC(=O)c4cc5c(cc4[C@H]3[C@@H]21)OCO5 [clivonine (6), clivonine] | > 100 | 34.4 ± 1.68 | > 100 | 28.2 ± 6.63 |  |  |  |  | 
6 | COc1ccc2c3c1O[C@H]1C[C@@H](O)C=C[C@@]31CCN(C)C2 [galanthamine, reference compound] |  |  |  | 68.2 ± 1.24 |  |  |  |  | 
7 | CC(O)CC(=O)O[C@H]1C[C@H]2CCN(C)[C@H]2[C@@H]2c3cc4c(cc3C(=O)O[C@H]21)OCO4 (some centres unmarked) [nobilisitine B (14), nobilisitine B] |  |  |  |  | > 100 | 40 ± 1.13 | > 100 | 12.6 ± 0.53 | 
8 | COc1cc2c(cc1O)C(=O)N1CCC3=C[C@H](O)[C@@H](OC(C)=O)[C@@H]2[C@@H]31 [sternbergine (17), sternbergine] |  | 1.25 ± 0.23 |  | 23.5 ± 2.28 |  |  | > 100 |  | > 100
